Measurements from patent US20060003992A1, “New drug combinations” (Pharmacia & Upjohn Company, LLC, priority 2001, published 2006).

Test system: mice
Assay: conditioned avoidance response assay
Assay type: in vivo
Conditions: tested 20 min after
Method: Eleven mice per sample group are tested using a conditioned avoidance response assay, which can be used to predict the likelihood of possible detrimental side effects associated with the administration of a neuroleptic agent. The regimen included a pre-treatment with either saline or reboxetine (at a dosage of 6 mg/kg, i.p.) followed thirty minutes afterwards by treatment with either saline or raclopride (0.05 mg/kg or 0.10 mg/kg, s.c.). The mice are tested in the assay twenty minutes after administration of the saline or raclopride. The mean average avoidance as measured by the assay for the six different sample groups are as follows: […]

Compound: CCN1CCC[C@H]1CNC(=O)c1c(O)c(Cl)cc(Cl)c1OC [raclopride]
- mean average avoidance (saline pre-treatment, 30 min later raclopride 0.05 mg/kg s.c.): 90
- mean average avoidance (saline pre-treatment, 30 min later raclopride 0.10 mg/kg s.c.): 70

Compound: CCOc1ccccc1OC(c1ccccc1)C1CNCCO1 (stereo not drawn) [reboxetine]
- mean average avoidance (reboxetine 6 mg/kg i.p. pre-treatment, 30 min later saline): 100
